Where two headings read alike, the source gives them in different places. Numbered stars: 1 amine (or outer) side, 2 acyl side, 3 side chain; on linkers, the order of the positions; unused ones are H or OH. Square brackets hold non-standard residues; d marks the D form. Peptide text beside a SMILES is read from it. * marks the point of attachment. X1 = CC(C)(C)[Si](F)(c1ccc(C[N+](C)(C)CC(=O)*)cc1)C(C)(C)C; DOTA = O=C(O)CN1CCN(CC(=O)O)CCN(CC(=O)*)CCN(CC(=O)O)CC1; d(γGlu) = O=C(O)[C@@H](CCC(=O)[*:2])N[*:1]; 1Nal = N[C@@H](Cc1cccc2ccccc12)C(=O)O; PEG5 = NCCOCCOCCOCCOCCOCCC(=O)O; NMeNle = CCCC[C@H](NC)C(=O)O; PEG4 = NCCOCCOCCOCCOCCC(=O)O; Nle = CCCC[C@H](N)C(=O)O; dDap = NC[C@@H](N)C(=O)O
What was measured:
[1] = Lipophilicity, n-octanol/PBS distribution coefficient logD7.4; assay type: physicochemical; conditions: 177Lu-labeled peptide; n-octanol/PBS (1/1), n ≥ 5
Method: For determination of lipophilicity, the respective ^177Lu-Labeled peptide precursor (~ 1 MBq, 10 µL in 0.04 M HCl) was added to a solution of n-octanol/PBS (1/1, v/v, 1 mL) and vigourously mixed for 3 min at room temperature (n ≥ 5). Afterwards both phases were seperated using a Biofuge 15 centrifuge (Heraus Sepatech GmbH, Osterode, Germany) at 9,000 rpm for 5 min. 200 µL aliquots of both layers were collected separately, measured in a γ-counter (Perkin Elmer, Waltham, MA, USA) and the logD7.4 value was obtained.

[2] = target: T1, cholecystokinin-2 receptor (CCK-2R) (Rattus norvegicus, UniProt P30553); experiment: CCK-2R affinity (apparent IC50), competitive binding on AR42J cells; conditions: natLu-labeled peptide, 3 h, 37 °C, [177Lu]Lu-DOTA-PP-F11N (0.3 pmol) as radiolabeled reference
T1 construct: host or cells: AR42J (rat pancreatic cancer cells)
T1 sequence (P30553 1-452): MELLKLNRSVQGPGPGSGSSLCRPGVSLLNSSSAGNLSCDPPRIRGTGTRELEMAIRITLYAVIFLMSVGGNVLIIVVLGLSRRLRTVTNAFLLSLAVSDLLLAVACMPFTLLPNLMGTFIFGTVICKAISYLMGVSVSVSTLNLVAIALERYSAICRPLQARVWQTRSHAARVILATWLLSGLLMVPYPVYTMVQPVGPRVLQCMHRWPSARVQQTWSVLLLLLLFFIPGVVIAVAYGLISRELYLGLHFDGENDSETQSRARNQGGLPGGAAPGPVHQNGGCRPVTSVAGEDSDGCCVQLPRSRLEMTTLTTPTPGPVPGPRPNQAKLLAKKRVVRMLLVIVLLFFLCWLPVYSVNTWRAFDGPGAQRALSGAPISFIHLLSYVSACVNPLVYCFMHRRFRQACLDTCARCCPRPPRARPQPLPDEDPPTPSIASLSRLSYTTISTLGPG
Method: On the next day, medium was removed, cells were washed with PBS (300 µL) and fresh nutrient medium supplemented with 5% BSA (200 µL) was added. The peptide of interest (25 µL in nutrient medium) in increasing concentrations (10^−10 to 10^−4 M) in triplicate as well as [^177Lu]Lu-DOTA-PP-F11N (25 μL, 0.3 pmol) were added to the cells and the assay was incubated for 3 h at 37 °C. Subsequently, the supernatant was collected, cells were washed with PBS (300 µL) and both fractions were unified. Cell lysis was conducted by addition of NaOH (300 µL, 1 N) and incubation for at least 20 min at room temperature. The supernatant was collected, the respective wells were washed with NaOH (300 µL, 1 N) and both fractions were unified. Radioactivity of all fractions collected was quantified using a γ-counter (PerkinElmer Inc., Waltham, United States). Apparent half-maximal inhibitory concentration (IC50) was calculated via the GraphPad PRISM software (GraphPad Software Inc., La Jolla, United States).
CCK-2R positive rat pancreatic cancer cells AR42J (CLS GmbH, Eppelheim, Germany) were cultivated in monolayers in CELLSTAR® cell culture flask (Greiner Bio-One GmbH, Frickenhausen, Germany) at 37°C in a humidified atmosphere (5% CO2). Therefor, a HERAcell 150i-Incubator (Thermo Fisher Scientific Inc., Waltham, United States) was used. RPMI 1640 medium, supplemented with 5 mM L-Gln 5 mL non-essential amino acids (100×) and 10% FCS, was used for cell nutrition. Detachment of the cells for passaging was conducted with a Dulbecco’s PBS solution supplemented with 0.1% EDTA (v/v). Cell numbers were determined with a Neubauer hemocytometer (Paul Marienfeld, Lauda-Königshofen, Germany). All operations requiring sterile conditions, were accomplished using a MSC-Advantage safety workbench (Thermo Fisher Scientific Inc., Waltham, United States).
Table S1. Affinity, lipophilicity and human serum albumin binding data of the compounds evaluated. Affinity data were determined on AR42J cells (2.0 × 10^5 cells/well) and [^177Lu]Lu-DOTA-PP-F11N (0.3 pmol/well) as radiolabeled reference (3 h, 37 °C, RPMI 1640, 5 mM L-Gln, 5 mL non-essential amino acids (100×), 10% FCS + 5% BSA (v/v)).

[3] = target: T2, Human serum albumin (HSA) (Homo sapiens, UniProt P02768); experiment: Human serum albumin binding via high performance affinity chromatography (HPAC); assay type: in vitro ADME; conditions: Chiralpak HSA column, n = 1
T2 construct: purchased Daicel, Tokyo, Japan H13H-2433
T2 sequence (P02768 25-609): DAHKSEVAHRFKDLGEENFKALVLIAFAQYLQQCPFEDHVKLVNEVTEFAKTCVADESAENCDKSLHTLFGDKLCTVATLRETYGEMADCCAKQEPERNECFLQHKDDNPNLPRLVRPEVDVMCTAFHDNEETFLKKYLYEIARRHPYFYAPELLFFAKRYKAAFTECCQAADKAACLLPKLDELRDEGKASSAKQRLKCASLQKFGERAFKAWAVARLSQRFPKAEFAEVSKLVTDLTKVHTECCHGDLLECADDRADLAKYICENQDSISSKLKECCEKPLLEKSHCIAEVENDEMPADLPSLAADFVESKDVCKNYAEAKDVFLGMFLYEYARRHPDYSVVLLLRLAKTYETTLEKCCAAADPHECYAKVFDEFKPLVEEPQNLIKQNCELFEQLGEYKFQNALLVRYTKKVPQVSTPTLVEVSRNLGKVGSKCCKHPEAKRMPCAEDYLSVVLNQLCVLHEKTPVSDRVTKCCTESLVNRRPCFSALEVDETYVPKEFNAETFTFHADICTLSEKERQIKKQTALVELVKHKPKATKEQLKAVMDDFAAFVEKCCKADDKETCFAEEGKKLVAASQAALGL
Method: Human serum albumin (HSA) binding was determined via high performance affinity chromatography (HPAC), according to previously published protocols. Human serum albumin interaction was calculated according to the retention time (n = 1) of our compounds on a Chiralpak HSA column in dependence of nine reference compounds with known HSA interaction.
Human serum albumin binding was determined via high performance affinity chromatography. Therefore, a Chiralpak HSA column (50 × 3 mm, 5 µm, H13H-2433, Daicel, Tokyo, Japan) was used at a constant flow rate of 0.5 ml/min at room temperature. Mobile phase A consisted of a freshly prepared aqueous solution of NH4OAc (pH = 6.9, 50 mM) and mobile phase B of isopropanol. Calibration of the column was performed daily prior to experiments, by determining the retention times of nine reference substances displaying a HSA binding from 13 to 99%. HPLC gradient for all compounds tested was 100% A (0 to 3 min), followed by 80% A (3 to 40 min). All substances tested, were dissolved in a mixture of A/B (0.5 mg/mL, 1:1, v/v). OriginPro 2016G software (Northampton, United States) was used for non-linear regression and data evaluation.

[4] = tested on: AR42J tumor-bearing CB17-SCID mice; conditions: 24 h p.i.; cited from earlier work
[5] = target: T1, cholecystokinin-2 receptor (CCK-2R); conditions: AR42J cells; read-out: apparent IC50; cited from earlier work

Compound	logD [1]	IC50 ([2]; n = 3, listed as [^natLu]Lu-DOTA-rhCCK-69) [nM]	HSA binding [3] [%]	IC50 ([2]; n = 3) [nM]	activity levels in the tumor [4] [%ID/g]	IC50 [5] [nM]
CCCC[C@@H](C(=O)N[C@@H](CC(=O)O)C(=O)N[C@@H](Cc1cccc2ccccc12)C(N)=O)N(C)C(=O)[C@H](Cc1c[nH]c2ccccc12)NC(=O)CCOCCOCCOCCOCCNC(=O)CC[C@@H](NC(=O)CCOCCOCCOCCOCCOCCOCCOCCOCCOCCOCCOCCOCCNC(=O)CC[C@@H](NC(=O)[C@@H](CNC(=O)c1cc(C(=O)O)cc([Si](F)(C(C)(C)C)C(C)(C)C)c1)NC(=O)CN1CCN(CC(=O)O)CCN(CC(=O)O)CCN(CC(=O)O)CC1)C(=O)O)C(=O)O [[^nat/177Lu]Lu-DOTA-rhCCK-69, DOTA-D-Dap(SiFA-ipa)-D-γ-Glu-(PEG)11-B, metal not drawn]	-2.11 ± 0.09	42.1 ± 1.7	84.7	–	–	–
CCCC[C@@H](C(=O)N[C@@H](CC(=O)O)C(=O)N[C@@H](Cc1cccc2ccccc12)C(N)=O)N(C)C(=O)[C@H](Cc1c[nH]c2ccccc12)NC(=O)CCOCCOCCOCCOCCNC(=O)CC[C@@H](NC(=O)CCOCCOCCOCCOCCOCCNC(=O)[C@@H](CNC(=O)C[N+](C)(C)Cc1ccc([Si](F)(C(C)(C)C)C(C)(C)C)cc1)NC(=O)CN1CCN(CC(=O)O)CCN(CC(=O)O)CCN(CC(=O)O)CC1)C(=O)O [[^nat/177Lu]Lu-DOTA-rhCCK-90, DOTA-D-Dap(SiFAlin)-(PEG)4-B, metal not drawn] ({DOTA}-[dDap](X1)[PEG5][d(γGlu)][PEG4]W[NMeNle]D[1Nal]-NH2)	-0.76 ± 0.09	–	94.5	9.9 ± 1	–	–
(R)-DOTAGA-D-Dap(p-SiFA)-(D-γ-Glu)6-Ala-Tyr-Gly-Trp-Nle-Asp-Phe-NH2 ({(R)‑DOTAGA-dDap(p-SiFA)-d(γGlu)-d(γGlu)-d(γGlu)-d(γGlu)-d(γGlu)-d(γGlu)}-AYGW[Nle]DF-NH2; also: 177Lu complex of DOTAGA) [[^177Lu]Lu-(R)-DOTAGA-rhCCK-16]	–	–	–	–	18.0 ± 0.7	20.4 ± 2.7

Source: article PMC10907560, “Significant reduction of activity retention in the kidneys via optimized linker sequences in radiohybrid-based minigastrin analogs” (EJNMMI Research, 2024)
